Assay results: US6280715A, “Cosmetic composition useful notably for the skin whitening and melanogenesis inhibiting agent containing such a cosmetic composition” (Exsymol S.A.M., priority 1997, dated 2001)

Experiments:
S91 melanoma cells = assay: melanin content of UV-irradiated S91 melanoma cell cultures; format: cell-based; conditions: Mus musculus, S91, light or radiation study
Experimental: The inhibiting activity on melanin, of the 1-amino-ethylphosphinic acid (Ia) is studied on S91 melanoma cells cultures.
The model of study was finalized by Gilchrest (1987).
The cultured cells are purchased from a Cloudman melanom.
As ordinary melanocytes, they respond to UV stimuli by an increase of melanogenesis.
The melanogenesis evaluation is made through the melanin content and the activity of enzymes involved in this metabolism: tyrosinase and dopa-tautomerase.
S91 cells are plated in P60 dishes at a density of […] per dish and maintained in Dubelcco's modified Eagle's medium and provided with 10% of calf serum. When the cells have reached about 50% of confluence, they are exposed to a UV irradiation of 10 mJ/cm^2 at 285±5 nm. During irradiation, the medium is replaced with a salin phosphate solution (PBS) to eliminate the forming of toxical derivatives. Immediately after irradiation, the PBS is replaced with fresh medium/7% of calf serum with or without the active agent. After a 16 hours incubation, the medium is replaced with ordinary medium with or without the active agent. […]
The melanin content is then determined: melanocytes are trypsinized, twice washed with PBS and dissolved in 0.8 ml of NaOH 1N, when strongly vortexed for 10-15 min and heated at 60-80° C. The melanin concentration is determined based on the absorbance at 475 nm.

tyrosinase = assay: in vitro inhibition of melanin formation from L-DOPA by tyrosinase; format: biochemical; conditions: product diluted at 1.10^-3 mole.l^-1 (2 ml in mixture), pH 6.8, 4 hours at 37° C., optical density at 400 nm
Experimental: The reference used is the ascorbic acid in solution at 0.3.10^-3 mole l^-1.
2 ml of a L-DOPA solution, 1.25 ml of tyrosinase (2500 units/ml), 2 ml of product (Ia) diluted at 1.10^-3 mole.l^-1 are mixed together, and the mixture is completed with 20 ml of phosphate buffer (NaH2 PO4 0.1 mole l^-1 +Na2 HPO4 0.1 mole.l^-1, pH=6.8). The mixture is stirred for 4 hours at 37° C., then allowed to cool at room temperature for one night, shielded from light.
1 ml of concentrated hydrochloric acid is added and the mixture is centrifuged at 4000 rpm for 5 min. The pellet is washed with 10 ml of distilled water then centrifuged a second time. A reflux is made on the pellet with concentrated acid HCL 6N for 48 hours. The dried pellet is dissolved in 10 ml of toluene, exposed to ultrasounds for 2 min, put 2 hours at 37° C. then exposed to ultrasounds again for 5 min. The optical density is measured at 400 nm.

Row | Compound | inhibition at 500 µM (S91 melanoma cells; read-out: decrease of melanin rate in the cells) [%] | percentage of inhibition of melanin (tyrosinase) [%] | inhibition at 3300 µM (S91 melanoma cells; kojic acid at 3.3.10^-3 mole.l^-1, UV irradiation 10 mJ/cm^2, absorbance at 475 nm, read-out: decrease of melanin content in the cells) [%]
1 | CC(N)[PH](=O)O (stereo not shown) [(Ia), 1-amino-ethylphosphinic acid] | 47.2 | 46 | 
2 | CC(C)CC(N)[PH](=O)O (stereo not shown) [(Ib), 1-amino-3-methylbutylphosphinic acid] |  | 44 | 
3 | O=c1cc(CO)occ1O [kojic acid, reference compound] |  |  | 45.2
